PubChem BioAssay (NCI)
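Values below derive from 48-hour exposures of cells grown in 96-well plates, with endpoints linearly interpolated between the two concentrations bracketing the appropriate inhibition level. GI50 is the concentration that inhibits growth by half. TGI: total growth inhibition.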

What was measured:
Assay in all cases: inhibition of tumour cell growth, NCI panel, 48 h
786-0 renal = test system: 786-0 renal
A498 renal = test system: A498 renal
A549 NSCLC = test system: A549 NSCLC
ACHN renal = test system: ACHN renal
BT-549 breast = test system: BT-549 breast
CCRF-CEM leukemia = test system: CCRF-CEM leukemia
COLO 205 colon = test system: COLO 205 colon
DMS 114 small cell lung = test system: DMS 114 small cell lung
DMS 273 small cell lung = test system: DMS 273 small cell lung
DU-145 prostate = test system: DU-145 prostate
EKVX NSCLC = test system: EKVX NSCLC
HCC-2998 colon = test system: HCC-2998 colon
HOP-62 NSCLC = test system: HOP-62 NSCLC
HS 578T breast = test system: HS 578T breast
HT29 colon = test system: HT29 colon
K-562 leukemia = test system: K-562 leukemia
KM12 colon = test system: KM12 colon
KM20L2 colon = test system: KM20L2 colon
LOX IMVI melanoma = test system: LOX IMVI melanoma
M14 melanoma = test system: M14 melanoma
M19-MEL melanoma = test system: M19-MEL melanoma
MALME-3M melanoma = test system: MALME-3M melanoma
NCI-H226 lung = test system: NCI-H226 lung
NCI-H23 lung = test system: NCI-H23 lung
NCI-H460 lung = test system: NCI-H460 lung
NCI-H522 lung = test system: NCI-H522 lung
NCI/ADR-RES ovarian = test system: NCI/ADR-RES ovarian
OVCAR-4 ovarian = test system: OVCAR-4 ovarian
OVCAR-8 ovarian = test system: OVCAR-8 ovarian
RPMI-8226 leukemia = test system: RPMI-8226 leukemia
SF-268 CNS = test system: SF-268 CNS
SF-295 CNS = test system: SF-295 CNS
SF-539 CNS = test system: SF-539 CNS
SK-MEL-2 melanoma = test system: SK-MEL-2 melanoma
SK-MEL-28 melanoma = test system: SK-MEL-28 melanoma
SK-OV-3 ovarian = test system: SK-OV-3 ovarian
SN12C renal = test system: SN12C renal
SNB-19 CNS = test system: SNB-19 CNS
SNB-75 CNS = test system: SNB-75 CNS
SNB-78 CNS = test system: SNB-78 CNS
SR leukemia = test system: SR leukemia
SW-620 colon = test system: SW-620 colon
T-47D breast = test system: T-47D breast
TK-10 renal = test system: TK-10 renal
U251 CNS = test system: U251 CNS
UACC-257 melanoma = test system: UACC-257 melanoma
UACC-62 melanoma = test system: UACC-62 melanoma
UO-31 renal = test system: UO-31 renal
XF 498 CNS = test system: XF 498 CNS

## C[CH2][Sn]([CH2]C)([O]C(=O)c1cccc(OC)c1)[O][Sn]([CH2]C)([CH2]C)[O]C(=O)c1cccc(OC)c1
786-0 renal
  GI50: 17 µM
  TGI: 30.7 µM
A498 renal
  GI50: 16 µM
  TGI: 30.2 µM
A549 NSCLC
  GI50: > 100 µM
  TGI: > 100 µM
ACHN renal
  GI50: 17.1 µM
  TGI: 31.4 µM
BT-549 breast
  GI50: 15.4 µM
  TGI: 29.4 µM
CCRF-CEM leukemia
  GI50: 3.17 µM
  TGI: 17.7 µM
COLO 205 colon
  GI50: 22 µM
  TGI: > 54.8 µM
DMS 114 small cell lung
  GI50: 15.9 µM
  TGI: 30.1 µM
DMS 273 small cell lung
  GI50: 22.7 µM
  TGI: 58.5 µM
DU-145 prostate
  GI50: > 100 µM
  TGI: > 100 µM
EKVX NSCLC
  GI50: > 40.8 µM
  TGI: > 55.6 µM
HCC-2998 colon
  GI50: > 76 µM
  TGI: > 100 µM
HOP-62 NSCLC
  GI50: > 58.2 µM
  TGI: > 100 µM
HS 578T breast
  GI50: 29.3 µM
  TGI: > 100 µM
HT29 colon
  GI50: 33.2 µM
  TGI: > 100 µM
K-562 leukemia
  GI50: 9.4 µM
  TGI: 60.3 µM
KM12 colon
  GI50: > 100 µM
  TGI: > 100 µM
KM20L2 colon
  GI50: 43.6 µM
  TGI: > 100 µM
LOX IMVI melanoma
  GI50: 11.4 µM
  TGI: 25.9 µM
M14 melanoma
  GI50: 30.9 µM
  TGI: > 59.4 µM
M19-MEL melanoma
  GI50: 17.1 µM
  TGI: 31.7 µM
MALME-3M melanoma
  GI50: 15 µM
  TGI: 30.4 µM
NCI-H226 lung
  GI50: 18.4 µM
  TGI: 33.2 µM
NCI-H23 lung
  GI50: 17.6 µM
  TGI: 36.2 µM
NCI-H460 lung
  GI50: > 71 µM
  TGI: > 100 µM
NCI-H522 lung
  GI50: 0.879 µM
  TGI: 2.4 µM
NCI/ADR-RES ovarian
  GI50: > 100 µM
  TGI: > 100 µM
OVCAR-4 ovarian
  GI50: 17.9 µM
  TGI: 35.3 µM
OVCAR-8 ovarian
  GI50: > 42.1 µM
  TGI: > 57 µM
RPMI-8226 leukemia
  GI50: 13 µM
  TGI: 54.3 µM
SF-268 CNS
  GI50: 23.2 µM
  TGI: > 56.6 µM
SF-295 CNS
  GI50: 20.8 µM
  TGI: 40.3 µM
SF-539 CNS
  GI50: 16.4 µM
  TGI: 30.4 µM
SK-MEL-2 melanoma
  GI50: 16.6 µM
  TGI: 37.4 µM
SK-MEL-28 melanoma
  GI50: 16.3 µM
  TGI: 35.9 µM
SK-OV-3 ovarian
  GI50: > 100 µM
  TGI: > 100 µM
SN12C renal
  GI50: 19.9 µM
  TGI: 44.9 µM
SNB-19 CNS
  GI50: 23.1 µM
  TGI: 57.1 µM
SNB-75 CNS
  GI50: 14.6 µM
  TGI: 42.2 µM
SNB-78 CNS
  GI50: 16.2 µM
  TGI: 32.9 µM
SR leukemia
  GI50: 26.3 µM
  TGI: > 100 µM
SW-620 colon
  GI50: 16.7 µM
  TGI: 33.1 µM
T-47D breast
  GI50: 3.05 µM
  TGI: 13.5 µM
TK-10 renal
  GI50: 16.8 µM
  TGI: 30.7 µM
U251 CNS
  GI50: 18.6 µM
  TGI: 35.1 µM
UACC-257 melanoma
  GI50: 17.2 µM
  TGI: 34.6 µM
UACC-62 melanoma
  GI50: 16.6 µM
  TGI: 31.4 µM
UO-31 renal
  GI50: 34 µM
  TGI: > 53.5 µM
XF 498 CNS
  GI50: 16.1 µM
  TGI: 29.6 µM
